According to the SangsterLogP compilation:

Assay: method code SF, from DOI: 10.1002/jps.2600790712, PMID: 2398468

logP	SMILES
4.15	C[C@H](CCCNCc1ccccc1)[C@H]1CC[C@H]2[C@@H]3C[C@H](O)[C@@H]4C[C@H](O)CC[C@]4(C)[C@H]3CC[C@]12C

Assay: method code SF-AS, from DOI: 10.1002/jps.2600790712, PMID: 2398468

logP	SMILES
4.95	C[C@H](CCCNCc1cccc(Cl)c1)[C@H]1CC[C@H]2[C@@H]3CC[C@@H]4C[C@H](O)CC[C@]4(C)[C@H]3CC[C@]12C
5	C[C@H](CCCNCc1ccc(Cl)cc1)[C@H]1CC[C@H]2[C@@H]3CC[C@@H]4C[C@H](O)CC[C@]4(C)[C@H]3CC[C@]12C
4.9	C[C@H](CCCNCc1ccccc1)[C@H]1CC[C@H]2[C@@H]3CC[C@@H]4C[C@H](O)CC[C@]4(C)[C@H]3CC[C@]12C

The next lines start with the compound.

SMILES	logP
C[C@H](CCCNCc1ccccc1Cl)[C@H]1CC[C@H]2[C@@H]3CC[C@@H]4C[C@H](O)CC[C@]4(C)[C@H]3CC[C@]12C	5.05
C[C@H](CCCNCc1ccccc1)[C@H]1CC[C@H]2[C@@H]3[C@H](O)C[C@@H]4C[C@H](O)CC[C@]4(C)[C@H]3CC[C@]12C	4.2
C[C@H](CCCNCc1ccccc1)[C@H]1CC[C@H]2[C@@H]3CC[C@@H]4C[C@H](O)CC[C@]4(C)[C@H]3C[C@H](O)[C@]12C	4.8
C[C@H](CCC(=O)NCc1ccccc1)[C@H]1CC[C@H]2[C@@H]3[C@H](O)C[C@@H]4C[C@H](O)CC[C@]4(C)[C@H]3C[C@H](O)[C@]12C	3.54
C[C@H](CCCNCc1ccccc1)[C@H]1CC[C@H]2[C@@H]3[C@H](O)C[C@@H]4C[C@H](O)CC[C@]4(C)[C@H]3C[C@H](O)[C@]12C	3.82
C[C@H](CCCN)[C@H]1CC[C@H]2[C@@H]3[C@@H](O)C[C@@H]4C[C@H](O)CC[C@]4(C)[C@H]3CC[C@]12C	4
